Drawing on patent US20240247080A1, “GLP1/GIP/NPY2 RECEPTOR TRIPLE AGONISTS” (Boehringer Ingelheim International GmbH, priority 2022, published 2024), this text covers EC50 for 13 substances.

Holding throughout (assay type): cell-based
Common to all, as to conditions: CreLuc reporter gene assay
(A reporter such as luciferase makes a cellular process visible.)

Assay [1] concerns the target T1, hGIPR (Homo sapiens, UniProt P48546).
T1 construct: expressed in transfected cells; host or cells: CHO cells carrying a CRE-luciferase reporter gene
T1 sequence (P48546 22-466): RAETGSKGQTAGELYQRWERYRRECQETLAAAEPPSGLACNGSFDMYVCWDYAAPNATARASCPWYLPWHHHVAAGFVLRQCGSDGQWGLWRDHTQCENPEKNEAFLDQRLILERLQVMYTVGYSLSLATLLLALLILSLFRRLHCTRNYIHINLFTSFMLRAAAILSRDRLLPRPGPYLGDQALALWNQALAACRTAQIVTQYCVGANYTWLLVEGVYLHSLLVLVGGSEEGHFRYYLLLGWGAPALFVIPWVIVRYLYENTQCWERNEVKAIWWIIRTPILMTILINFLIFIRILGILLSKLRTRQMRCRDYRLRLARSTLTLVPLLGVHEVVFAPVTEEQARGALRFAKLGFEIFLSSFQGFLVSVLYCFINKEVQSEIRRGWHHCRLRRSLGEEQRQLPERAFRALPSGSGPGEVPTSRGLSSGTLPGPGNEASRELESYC
The experiment in a line: hGIPR CreLuc reporter gene assay in 0.5% and 100% plasma. Summed up: (§1)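 Agonist EC50s came from 8-concentration curves over four decades, fitted by non-linear variable-slope regression of CRE-driven luciferase luminescence. Cells were exposed 4 h at 37 °C, in buffer with 0.5% human plasma or in 100% plasma; GIPR was expressed in CHO cells, GLP-1R and NPY2R in HEK cells.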

In assay [2] the target is T2, hNPY2R (Homo sapiens, UniProt P49146).
T2 construct: expressed in transfected cells; host or cells: HEK-293 cells carrying a CRE-luciferase reporter gene
T2 sequence (P49146 1-381): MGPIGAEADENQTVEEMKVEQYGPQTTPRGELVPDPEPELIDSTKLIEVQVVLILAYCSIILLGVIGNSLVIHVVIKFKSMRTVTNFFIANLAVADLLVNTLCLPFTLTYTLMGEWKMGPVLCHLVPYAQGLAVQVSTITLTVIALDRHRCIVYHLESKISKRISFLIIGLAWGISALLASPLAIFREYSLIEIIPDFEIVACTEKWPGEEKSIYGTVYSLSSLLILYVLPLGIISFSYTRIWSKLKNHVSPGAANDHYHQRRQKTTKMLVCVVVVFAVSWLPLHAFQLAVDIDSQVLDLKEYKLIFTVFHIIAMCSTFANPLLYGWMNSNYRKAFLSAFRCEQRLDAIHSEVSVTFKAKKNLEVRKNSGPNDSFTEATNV
The experiment in a line: hNPY2R CreLuc reporter gene assay in 0.5% and 100% plasma. An excerpt: Example 1: hGLPR/hGIPR/hNPY2R CreLuc Assay in 0.5% and 100% Plasma
CHO and HEK-293 recombinant cell lines express a luciferase reporter gene under control of the cAMP responsive element (CRE). As a second recombinant protein the GLP-1 and NPY2 receptors were expressed in the reporter gene HEK cells, and the GIP receptor was expressed in the reporter gene CHO cells, respectively. Stimulation of these recombinant cells with an agonist leads to an increase of intracellular cAMP levels. In the presence of cAMP, the transcription factor CRE binding protein (CREB) binds to the CRE and to the CREB binding protein (CBP), which leads to transcription of the luciferase reporter gene. Peptides upon serial-dilution in 100% DMSO were transferred into 384-well assay plates with 5 μl pre-dispensed assay buffer (1×HBSS, 20 mM HEPES, pH7.4 supplemented with 0.5% human plasma) using acoustic dispensing on a Labcyte ECHO. Cryo-preserved transgenic reporter gene cells were thawed in assay buffer. 20 μl (10.000 cells/well) were added to the plate with the peptides and incubated for 4 hours at 37° C. in a humidified incubator. Following incubation, assay plates are equilibrated to room temperature, followed by addition of 25 μl of Bright-GIo™ Luciferase reagent, incubation at room temperature for 10 minutes and analysis of luminescence (Envision Reader). Concentration response evaluation of compounds was performed with 8 concentrations of peptides (covering four decades). EC50 values were calculated by non-linear regression using sigmoid concentration-response with variable slope. The same assays were run in the presence of 100% plasma with no additional buffer constituents.

Assay [3] deals with T3, hGLP1R (Homo sapiens, UniProt P43220).
T3 construct: expressed in transfected cells; host or cells: HEK-293 cells carrying a CRE-luciferase reporter gene
T3 sequence (P43220 24-463): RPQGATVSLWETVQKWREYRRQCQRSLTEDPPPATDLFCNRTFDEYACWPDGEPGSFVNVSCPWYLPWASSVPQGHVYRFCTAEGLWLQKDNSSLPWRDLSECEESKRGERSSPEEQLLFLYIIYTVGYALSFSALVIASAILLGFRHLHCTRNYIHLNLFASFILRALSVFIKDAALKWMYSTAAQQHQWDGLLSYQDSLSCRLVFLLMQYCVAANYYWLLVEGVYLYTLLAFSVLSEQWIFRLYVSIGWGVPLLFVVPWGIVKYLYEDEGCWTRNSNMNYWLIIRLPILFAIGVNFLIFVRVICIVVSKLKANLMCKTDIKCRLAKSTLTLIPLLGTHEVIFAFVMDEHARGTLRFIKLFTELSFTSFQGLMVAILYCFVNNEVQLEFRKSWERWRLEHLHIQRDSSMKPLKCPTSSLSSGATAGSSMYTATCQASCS
Briefly: hGLP1R CreLuc reporter gene assay in 0.5% and 100% plasma. Put shortly: as §1

[4] abbreviates: 0.5% human plasma, read-out: hGIPR 0.5% hP.
Where [5] appears, read: 0.5% human plasma, read-out: hNPY2R 0.5% hP.
Where [6] appears, read: 100% human plasma, read-out: hNPY2R 100% hP.
[7] abbreviates: 100% human plasma, read-out: hGIPR 100% hP.
The mark [8] stands for this setting: 0.5% human plasma, read-out: hGLP1R 0.5% hP.

Where two headings read alike, the source gives them in different places. Starred links: 1 amine or outer side, 2 acyl side, 3 side chain; linkers in the order of their positions; H or OH if unused. Non-standard residues stand in square brackets, D forms with d. Groups on a side chain read outwards from the residue. No end group written: not given here. *: point of attachment. C20 diacid = O=C(O)CCCCCCCCCCCCCCCCCCC(=O)*; C18 diacid = O=C(O)CCCCCCCCCCCCCCCCC(=O)*; γGlu = O=C(O)[C@H](CCC(=O)[*:2])N[*:1]; εLys = N[C@@H](CCCCN[*:1])C(=O)[*:2]; AEEA = NCCOCCOCC(=O)O; Aib = CC(C)(N)C(=O)O

As to “H-Y[Aib]EGTFTSDYSI[Aib]LEKQAQ[Aib]AFVEWLIK([εLys-γGlu-γGlu-γGlu-γGlu-γGlu-γGlu-C20 diacid])GGPRYYASLRHYYNWLTRQRY-NH2 [Compound 62, Y-Aib-E-G-T-F-T-S-D-Y-S-I-Aib-L-E-K-Q-A-Q-Aib-A-F-V-E-W-L-I-K(1,3)-GGPRYYASLRHYYNWLTRQRY-NH2.C20DA-gGlu-gGlu-gGlu-gGlu-gGlu-gGlu-eLys(1,2)]”, the EC50 came out at 0.48 nM in assay [1] (setting [4]), 13.6 nM in assay [2] (setting [5]) and 40.5 nM in assay [2] (setting [6]).

On to “H-Y[Aib]EGTFTSDYSI[Aib]LEKQAQ[Aib]EFVEWLIK([εLys-γGlu-γGlu-γGlu-γGlu-γGlu-γGlu-C20 diacid])GGPSSGASLRHYYNWLTRQRY-NH2 [Compound 215, Y-Aib-E-G-T-F-T-S-D-Y-S-I-Aib-L-E-K-Q-A-Q-Aib-E-F-V-E-W-L-I-K(1,3)-GGPSSGASLRHYYNWLTRQRY-NH2.C20DA-gGlu-gGlu-gGlu-gGlu-gGlu-gGlu-eLys(1,2)]”, for which the results for the EC50 in assay [1] (setting [4]), in assay [1] (setting [7]) and in assay [2] (setting [5]) were 0.5 nM, 2.94 nM and 12.4 nM, respectively.

As to “H-Y[Aib]EGTFTSDYSI[Aib]LEKQAE[Aib]AFVEWLIK([AEEA-AEEA-γGlu-γGlu-γGlu-γGlu-C18 diacid])GGPSEGASLRHYYNWLTRQRY-NH2 [Compound 251, Y-Aib-E-G-T-F-T-S-D-Y-S-I-Aib-L-E-K-Q-A-E-Aib-A-F-V-E-W-L-I-K(1,3)-GGPSEGASLRHYYNWLTRQRY-NH2.C18DA-gGlu-gGlu-gGlu-gGlu-OEG-OEG(1,2)]”, the EC50 in assay [1] (setting [4]) came out at 0.16 nM; in assay [1] (setting [7]), 0.98 nM; in assay [2] (setting [5]), 20.6 nM; in assay [2] (setting [6]) it was 48.7 nM.

“H-Y[Aib]EGTFTSDYSI[Aib]LEKQAQ[Aib]EFVEWLIK([AEEA-AEEA-γGlu-γGlu-γGlu-C18 diacid])GGPESGASLRHYYNWLTRQRY-NH2 [Compound 81, Y-Aib-E-G-T-F-T-S-D-Y-S-I-Aib-L-E-K-Q-A-Q-Aib-E-F-V-E-W-L-I-K(1,3)-GGPESGASLRHYYNWLTRQRY-NH2.C18DA-gGlu-gGlu-gGlu-OEG-OEG(1,2)]”: the EC50 in assay [1] (setting [4]) worked out at 0.27 nM; in assay [2] (setting [5]), 11.1 nM.

On to “H-Y[Aib]EGTFTSDYSI[Aib]LEKQAQ[Aib]AFVQWLIK([εLys-γGlu-γGlu-γGlu-γGlu-γGlu-C20 diacid])GGPEEPASLRHYYNWLTRQRY-NH2 [Compound 67, Y-Aib-E-G-T-F-T-S-D-Y-S-I-Aib-L-E-K-Q-A-Q-Aib-A-F-V-Q-W-L-I-K(1,3)-GGPEEPASLRHYYNWLTRQRY-NH2.C20DA-gGlu-gGlu-gGlu-gGlu-gGlu-eLys(1,2)]”, for which the EC50 worked out at 0.29 nM in assay [1] (setting [4]), 13.7 nM in assay [2] (setting [5]) and 78.9 nM in assay [2] (setting [6]).

With “H-Y[Aib]EGTFTSDYSI[Aib]LEKQAQ[Aib]AFVQWLIK([εLys-γGlu-γGlu-γGlu-γGlu-γGlu-γGlu-C20 diacid])GGPSEYVSLRHYYNWLTRQRY-NH2 [Compound 78, Y-Aib-E-G-T-F-T-S-D-Y-S-I-Aib-L-E-K-Q-A-Q-Aib-A-F-V-Q-W-L-I-K(1,3)-GGPSEYVSLRHYYNWLTRQRY-NH2.C20DA-gGlu-gGlu-gGlu-gGlu-gGlu-gGlu-eLys(1,2)]”, the EC50 came out at 0.53 nM in assay [1] (setting [4]), 12.9 nM in assay [2] (setting [5]) and 24.6 nM in assay [2] (setting [6]).

For the substance “H-Y[Aib]EGTFTSDYSI[Aib]LE[Aib]KAQ[Aib]EFVEWLIK([εLys-γGlu-γGlu-γGlu-γGlu-γGlu-γGlu-C20 diacid])GGPSSGASLRHYYNWLTRQRY-NH2 [Compound 24, Y-Aib-E-G-T-F-T-S-D-Y-S-I-Aib-L-E-Aib-K-A-Q-Aib-E-F-V-E-W-L-I-K(1,3)-GGPSSGASLRHYYNWLTRQRY-NH2.C20DA-gGlu-gGlu-gGlu-gGlu-gGlu-gGlu-eLys(1,2)]”, the EC50 in assay [2] (setting [5]) was determined as 26.8 nM.

For “Y[Aib]EGTFTSDYSI[Aib]LEKQAE[Aib]AFVQWLIK([AEEA-AEEA-γGlu-γGlu-γGlu-γGlu-C20 diacid])GGPSEGASLRHYYNWLTRQRY-NH2 [Compound 219, Y-Aib-E-G-T-F-T-S-D-Y-S-I-Aib-L-E-K-Q-A-E-Aib-A-F-V-Q-W-L-I-K(1,3)-GGPSEGASLRHYYNWLTRQRY-NH2.C20DA-gGlu-gGlu-gGlu-gGlu-OEG-OEG(1,2)]”, the EC50 amounted to 0.46 nM in assay [1] (setting [4]), 2.43 nM in assay [1] (setting [7]), 12.8 nM in assay [2] (setting [5]) and 43.4 nM in assay [2] (setting [6]).

For the substance “H-Y[Aib]EGTFTSDYSI[Aib]LEKQAQ[Aib]AFVEWLIK([εLys-γGlu-γGlu-γGlu-γGlu-γGlu-γGlu-C20 diacid])GGPSEGVSLRHYYNWLTRQRY-NH2 [Compound 241, Y-Aib-E-G-T-F-T-S-D-Y-S-I-Aib-L-E-K-Q-A-Q-Aib-A-F-V-E-W-L-I-K(1,3)-GGPSEGVSLRHYYNWLTRQRY-NH2.C20DA-gGlu-gGlu-gGlu-gGlu-gGlu-gGlu-eLys(1,2)]”, the EC50 is 0.69 nM in assay [1] (setting [4]), 4.36 nM in assay [1] (setting [7]) and 16.7 nM in assay [2] (setting [5]).

For “H-Y[Aib]EGTFTSDYSI[Aib]LEKQAQ[Aib]AFVEWLIK([εLys-γGlu-γGlu-γGlu-γGlu-γGlu-γGlu-C20 diacid])GGPSSGADLRHYLNWLTRQRY-NH2 [Compound 72, Y-Aib-E-G-T-F-T-S-D-Y-S-I-Aib-L-E-K-Q-A-Q-Aib-A-F-V-E-W-L-I-K(1,3)-GGPSSGADLRHYLNWLTRQRY-NH2.C20DA-gGlu-gGlu-gGlu-gGlu-gGlu-gGlu-eLys(1,2)]”, the EC50 in assay [3] (setting [8]) was 0.15 nM; in assay [3] (100% human plasma, read-out: hGLP1R 100% hP), 2.87 nM; in assay [1] (setting [4]), 0.29 nM.

For “H-Y[Aib]EGTFTSDYSI[Aib]LEKQAQ[Aib]EFVQWLIK([AEEA-AEEA-Glu-Glu-Glu-C18 diacid])GGPSEGASLRHYYNWLTRQRY-NH2 [Compound 157, Y-Aib-E-G-T-F-T-S-D-Y-S-I-Aib-L-E-K-Q-A-Q-Aib-E-F-V-Q-W-L-I-K(1,3)-GGPSEGASLRHYYNWLTRQRY-NH2.C18DA-E-E-E-OEG-OEG(1,2)]”, the results for the EC50 in assay [3] (setting [8]), in assay [1] (setting [4]) and in assay [1] (setting [7]) were 0.35 nM, 0.38 nM and 1.58 nM, respectively.

Regarding “H-Y[Aib]EGTFTSDYSI[Aib]LEKQAQ[Aib]AFVQWLIK([εLys-γGlu-γGlu-γGlu-γGlu-γGlu-γGlu-C20 diacid])GGPSSGVSLRHYYNWLTRQRY-NH2 [Compound 47, Y-Aib-E-G-T-F-T-S-D-Y-S-I-Aib-L-E-K-Q-A-Q-Aib-A-F-V-Q-W-L-I-K(1,3)-GGPSSGVSLRHYYNWLTRQRY-NH2.C20DA-gGlu-gGlu-gGlu-gGlu-gGlu-gGlu-eLys(1,2)]”, the EC50 is 0.07 nM in assay [3] (setting [8]), 0.25 nM in assay [1] (setting [4]) and 0.73 nM in assay [1] (setting [7]).

Regarding “H-Y[Aib]EGTFTSDYSI[Aib]LEKQAQ[Aib]EFVEWLIK([AEEA-AEEA-γGlu-γGlu-γGlu-C20 diacid])GGPSEGASLRHYYNWLTRQRY-NH2 [Compound 273, Y-Aib-E-G-T-F-T-S-D-Y-S-I-Aib-L-E-K-Q-A-Q-Aib-E-F-V-E-W-L-I-K(1,3)-GGPSEGASLRHYYNWLTRQRY-NH2.C20DA-gGlu-gGlu-gGlu-OEG-OEG(1,2)]”, the values for the EC50 in assay [1] (setting [4]), in assay [1] (setting [7]) and in assay [2] (setting [5]) were 0.38 nM, 1.52 nM and 19.3 nM, respectively.
